Measurements published in patent US5220018A, “Cholecystokinin antagonists” (Merck & Co., Inc., priority 1992, dated 1993).
pIC50: −log10 of the molar value. Like-named read-outs stand apart in the source and are kept apart here.

Experiments:
Gastrin Receptor = target: T1, Gastrin Receptor (Cavia porcellus, UniProt H0VZC5); assay: Gastrin Receptor Binding in Guinea Pig Gastric Glands; design: species or system guinea pigs
T1 construct: from tissue; host or cells: guinea pig gastric mucosal glands (collagenase-dispersed)
T1 sequence (H0VZC5 1-426): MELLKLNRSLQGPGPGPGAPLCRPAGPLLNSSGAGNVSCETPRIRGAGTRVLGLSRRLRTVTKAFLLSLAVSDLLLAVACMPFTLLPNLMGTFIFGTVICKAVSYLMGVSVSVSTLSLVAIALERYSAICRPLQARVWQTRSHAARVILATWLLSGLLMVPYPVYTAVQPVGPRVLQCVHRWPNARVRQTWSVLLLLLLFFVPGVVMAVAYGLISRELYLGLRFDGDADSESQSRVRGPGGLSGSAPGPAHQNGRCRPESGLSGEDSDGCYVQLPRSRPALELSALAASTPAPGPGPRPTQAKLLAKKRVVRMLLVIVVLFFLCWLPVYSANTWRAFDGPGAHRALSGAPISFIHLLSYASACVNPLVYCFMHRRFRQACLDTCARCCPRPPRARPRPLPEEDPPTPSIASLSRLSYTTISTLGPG
Experimental: Gastrin antagonist activity of compounds of Formula I is determined using the following assay.
A. Gastrin Receptor Binding in Guinea Pig Gastric Glands
Preparation of guinea pig gastric mucosal glands
Guinea pig gastric mucosal glands were prepared by the procedure of Chang et al., Science 230, 177-179 (1985) with slight modification. Gastric mucosa from guinea pigs (300-500 g body weight, male Hartley) were isolated by scraping with a glass slide after washing stomachs in ice-cold, aerated buffer consisting of the following: 130 mM NaCl, 12 mM NaHCO3, 3 mM NaH2 PO4, 3 mM Na2 HPO4, 3 mM K2 HPO4, 2 mM MgSO4, 1 mM CaCl2, 5 mM glucose and 4 mM L-glutamine, 50 mM HEPES, 0.25 mg/ml bacitracin, 0.10 mg/ml soya bean trypsin inhibitor, 0.1 mg/ml bovine serum albumin, at pH 6.5, and then incubated in a 37° C. shaking water bath for 40 minutes in buffer containing 1 mg/ml collagenase and bubbled with 95% O2 and 5% CO2. The tissues were passed twice through a 5 ml syringe to liberate the gastric glands, and then filtered through Nitex #202 gauge nylon mesh. The filtered glands were centrifuged at 272 g for 5 minutes and washed twice by resuspension in 25 ml buffer and centrifugation.
The washed guinea pig gastric glands prepared as above were resuspended in 25 ml of standard buffer. […] The radioactivity on the filters was measured using a LKB gamma counter.

CCK Receptor (Brain) = target: T2, CCK Receptor (Brain) (Cavia porcellus, UniProt H0VZC5); assay: CCK Receptor Binding (Brain), inhibition of 125I-CCK-8 binding; design: species or system Male Hartley guinea pigs
T2 construct: the cortex was removed and homogenized in 25 mL ice-cold 0.32M sucrose; from tissue; host or cells: guinea pig cerebral cortex, P2 membrane pellet
T2 sequence (H0VZC5 1-426): T1 sequence (H0VZC5 1-426)
Experimental: 2. CCK Receptor Binding (Brain)
CCK-8 sulphated was radiolabelled and the binding was performed according to the description for the pancreas method with minor modifications.
Male Hartley guinea pigs (300-500 g) were sacrificed by decapitation and the cortex was removed and homogenized in 25 mL ice-cold 0.32M sucrose. The homogenates were centrifuged at 1000 g for 10 minutes and the resulting supernatant was recentrifuged at 20,000 g for 20 minutes. […] All assays were run in duplicate. The reaction mixtures were incubated at 25° C. for 2 hours and then the reaction was terminated on Whatman GF/C filters by rapid filtration (Brandell 24 well cell Harvester) with 3×5 ml washes of cold 100 mM NaCl. The radioactivity on the filters was then counted with a LKB gamma counter.
(§1) Drug displacement studies were performed with at least 10 concentrations of compounds of formula 1 and the IC50 values were determined by regression analysis.

CCK Receptor (Pancreas) = target: T3, CCK Receptor (Pancreas) (Rattus norvegicus, UniProt P30551); assay: biochemical; type: binding, Male Sprague-Dawley rats
T3 construct: The whole pancreas was dissected free of fat tissue and was homogenized; from tissue; host or cells: rat whole pancreas, homogenate membranes
T3 sequence (P30551 1-444): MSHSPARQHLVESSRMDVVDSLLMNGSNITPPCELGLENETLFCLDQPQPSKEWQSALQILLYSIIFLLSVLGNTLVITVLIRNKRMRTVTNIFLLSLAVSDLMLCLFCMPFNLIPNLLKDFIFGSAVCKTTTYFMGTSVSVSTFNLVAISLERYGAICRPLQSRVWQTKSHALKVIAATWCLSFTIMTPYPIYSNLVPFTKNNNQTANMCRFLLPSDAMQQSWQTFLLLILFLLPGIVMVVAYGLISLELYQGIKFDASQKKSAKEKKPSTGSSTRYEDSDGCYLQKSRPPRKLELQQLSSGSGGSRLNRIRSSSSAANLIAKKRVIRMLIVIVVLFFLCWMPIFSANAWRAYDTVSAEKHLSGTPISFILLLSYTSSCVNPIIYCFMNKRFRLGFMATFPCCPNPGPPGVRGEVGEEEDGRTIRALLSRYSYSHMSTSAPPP
Experimental: 1. CCK Receptor Binding (Pancreas)
CCK-8 sulphated was radiolabelled with ^125 I-Bolton Hunter reagent (2000 Ci/mmole). Receptor binding was performed according to Chang and Lotti (Proc. Natl. Acad. Sci. 83, 4923-4926, 1986) with minor modifications.
Male Sprague-Dawley rats (150-200 g) were sacrificed by decapitation. The whole pancreas was dissected free of fat tissue and was homogenized in 25 volumes of ice-cold 10 mM Hepes buffer with 0.1% soya bean trypsin inhibitor (pH 7.4 at 25° C.) with a Kinematica Polytron. The homogenates were centrifuged at 47,800 g for 10 min. Pellets were resuspended in 10 volumes of binding assay buffer (20 mM Hepes, 1 mM EGTA, 5 mM MgCl2, 150 mM NaCl, bacitracin 0.25 mg/ml, soya bean trypsin inhibitor 0.1 mg/ml, and bovine serum albumin 2 mg/ml, pH 6.5 at 25° C.) using a teflon homogenizer, 15 strokes at 500 rpm. The homogenate was further diluted in binding assay buffer to give a final concentration of 0.5 mg original wet weight/1 ml buffer. […] All assays were run in duplicate. The reaction mixtures were incubated at 25° C. for 2 hours and the reaction terminated by rapid filtration (Brandell 24 well cell harvester) over Whatman GF/C filters, washing 3×4 mls with ice-cold 100 mM NaCl. The radioactivity on the filters was counted with a LKB gamma counter.
as §1

[1] = rat pancreas membranes, 125I-CCK-8 50 pM, 25° C., 2 hours, read-out: IC50, 125I-CCK Pancreas
[2] = guinea pig cortex membranes, 125I-CCK-8 50 pM, 25° C., 2 hours, read-out: IC50, 125I-CCK Brain

With `CN1C(=O)[C@H](NC(=O)Nc2cccc(-c3nnn[nH]3)c2)N=C(c2ccccc2)c2ccccc21` [Example 1, N-{1,3-Dihydro-1-methyl-2-oxo-5-phenyl-1H-1,4-benzodiazepin-3-yl}-N'-{[3-(1H-tetrazol-5-yl)phenyl]urea}] as the compound, how does the pIC50 (Gastrin Receptor) read?
The pIC50 was 9.15.

What about the pIC50 (CCK Receptor (Brain)) of the same compound?
Its pIC50 is 9.00.

What about the pIC50 (CCK Receptor (Pancreas); [1]) of the same compound?
Its pIC50 is 6.40.

Which results are given for `CC(C)CN1C(=O)[C@H](NC(=O)Nc2cccc(-c3nnn[nH]3)c2)N=C(c2ccccc2)c2ccccc21` [Example 2, N-{1,3-Dihydro-1-[2-methyl]propyl-2-oxo-5-phenyl-1H-1,4-benzodiazepin-3-yl}-N'-{[3-(1H-tetrazol-5-yl)phenyl]urea}]?
pIC50 (Gastrin Receptor; guinea pig gastric glands, method: 125I-gastrin 0.1 nM, 25° C., 30 minutes, read-out: IC50, 125I-CCK Gastric Glands): 9.62; pIC50 (CCK Receptor (Brain); [2]): 10.00; pIC50 (CCK Receptor (Pancreas); [1]): 5.85

What does the source list for `CN1C(=O)[C@H](NC(=O)Nc2cccc(C(=O)NS(=O)(=O)C(C)(C)C)c2)N=C(c2ccccc2)c2ccccc21` [Example 25, N-{1,3-Dihydro-1-methyl-2-oxo-5-phenyl-1H-1,4-benzodiazepin-3-yl}-N'-{[3-(N-(t-butylsulfonyl)carboxamido)phenyl]urea}]?
pIC50 (CCK Receptor (Brain); [2]): 9.42; pIC50 (CCK Receptor (Pancreas); [1]): < 5.52

With `CC(C)NC(=O)NC(=O)c1cccc(NC(=O)N[C@@H]2N=C(c3ccccc3)c3ccccc3N(C)C2=O)c1` [Example 26, N-{1,3-Dihydro-1-methyl-2-oxo-5-phenyl-1H-1,4-benzodiazepin-3-yl}-N'-{[3-(N-(2-propylaminocarbonyl)carboxamido)phenyl]urea}] as the compound, how does the pIC50 (CCK Receptor (Brain); [2]) read?
The pIC50 was 6.39.

And the pIC50 (CCK Receptor (Pancreas); [1])?
Its pIC50 is under 5.52.

With `CC(=O)NS(=O)(=O)c1cccc(NC(=O)N[C@@H]2N=C(c3ccccc3)c3ccccc3N(CC3CC3)C2=O)c1` [Example 27, N-{1,3-Dihydro-1-cyclopropylmethyl-2-oxo-5-phenyl-1H-1,4-benzodiazepin-3-yl}-N'-{[3-(N-(acetyl)sulfonamido)phenyl]urea}] as the compound, how does the pIC50 (CCK Receptor (Brain); [2]) read?
Its pIC50 is 9.26.

And the pIC50 (CCK Receptor (Pancreas); [1])?
The pIC50 was 5.34.

With `CN1C(=O)[C@H](NC(=O)Nc2cccc(S(=O)(=O)NC(=O)C(C)(C)C)c2)N=C(c2ccccc2)c2ccccc21` [Example 28, N-{1,3-Dihydro-1-methyl-2-oxo-5-phenyl-1H-1,4-benzodiazepin-3-yl}-N'-{[3-(N-(1,1-dimethylethylcarbonyl)sulfonamido)phenyl]urea}] as the compound, how does the pIC50 (CCK Receptor (Brain); [2]) read?
Its pIC50 is 7.92.

And the pIC50 (CCK Receptor (Pancreas); [1])?
Its pIC50 is under 5.52.

`CN1C(=O)[C@H](NC(=O)Nc2cccc(S(=O)(=O)NC(=O)C3CC3(C)C)c2)N=C(c2ccccc2)c2ccccc21` (some centres unmarked) [Example 29, N-{1,3-Dihydro-1-methyl-2-oxo-5-phenyl-1H-1,4-benzodiazepin-3-yl}-N'-{[3-(N-(2,2-dimethylcyclopropylcarbonyl)sulfonamido)phenyl]urea}] was tested. Which pIC50 (CCK Receptor (Brain); [2]) did it give?
Its pIC50 is 7.96.

What about the pIC50 (CCK Receptor (Pancreas); [1]) of the same compound?
The pIC50 was under 5.52.

`CN1C(=O)[C@H](NC(=O)Nc2cccc(S(=O)(=O)NC(=O)NC(C)(C)C)c2)N=C(c2ccccc2)c2ccccc21` [Example 30, N-{1,3-Dihydro-1-methyl-2-oxo-5-phenyl-1H-1,4-benzodiazepin-3-yl}-N'-{[3-(N-(t-butylaminocarbonyl)sulfonamido)phenyl]urea}] was tested. Which pIC50 (CCK Receptor (Brain); [2]) did it give?
The pIC50 was 7.85.

And the pIC50 (CCK Receptor (Pancreas); [1])?
The pIC50 was under 5.52.

With `CN1C(=O)[C@H](NC(=O)Nc2cccc(S(=O)(=O)NP(=O)(Oc3ccccc3)Oc3ccccc3)c2)N=C(c2ccccc2)c2ccccc21` [Example 31, N-{1,3-Dihydro-1-methyl-2-oxo-5-phenyl-1H-1,4-benzodiazepin-3-yl}-N'-{[3-(N-(diphenylphosphono)sulfonamido)phenyl]urea}] as the compound, how does the pIC50 (CCK Receptor (Brain)) read?
The pIC50 was 7.82.

What about the pIC50 (CCK Receptor (Pancreas)) of the same compound?
The pIC50 was under 5.52.

`CN1C(=O)[C@H](NC(=O)Nc2cccc(/C=C/C(=O)O)c2)N=C(c2ccccc2)c2ccccc21` [Example 32, N-{1,3-Dihydro-1-methyl-2-oxo-5-phenyl-1H-1,4-benzodiazepin-3-yl}-N'-{[3-(trans-carboxyethylene)phenyl]urea}] was tested. Which pIC50 (CCK Receptor (Brain); [2]) did it give?
Its pIC50 is 8.05.

And the pIC50 (CCK Receptor (Pancreas); [1])?
Its pIC50 is 7.92.

How did the pIC50 (CCK Receptor (Brain); [2]) turn out when `CN1C(=O)[C@H](NC(=O)Nc2cccc(-c3nnn(C)n3)c2)N=C(c2ccccc2)c2ccccc21` [Example 33, N-{1,3-Dihydro-1-methyl-2-oxo-5-phenyl-1H-1,4-benzodiazepin-3-yl}-N'-{[3-(2-methyltetrazol-5-yl)phenyl]urea}] was run?
Its pIC50 is 7.68.

And the pIC50 (CCK Receptor (Pancreas))?
The pIC50 was 5.80.

How did the pIC50 (CCK Receptor (Brain); [2]) turn out when `CN1C(=O)[C@H](NC(=O)Nc2cccc(-c3noc(=O)[nH]3)c2)N=C(c2ccccc2)c2ccccc21` [Example 34, N-{1,3-Dihydro-1-methyl-2-oxo-5-phenyl-1H-1,4-benzodiazepin-3-yl}-N'-{[3-(1,2,4-oxadiazol-5-one)phenyl]urea}] was run?
Its pIC50 is 9.72.

What about the pIC50 (CCK Receptor (Pancreas); [1]) of the same compound?
Its pIC50 is 5.96.

What does the source list for `O=C(Nc1cccc(-c2noc(=O)[nH]2)c1)N[C@@H]1N=C(c2ccccc2)c2ccccc2N(CC2CC2)C1=O` [Example 35, N-{1,3-Dihydro-1-cyclopropylmethyl-2-oxo-5-phenyl-1H-1,4-benzodiazepin-3-yl}-N'-{[3-(1,2,4-oxadiazol-5-one)phenyl]urea}]?
pIC50 (CCK Receptor (Brain); [2]): 10.05; pIC50 (CCK Receptor (Pancreas); [1]): 6.72

How did the pIC50 (CCK Receptor (Brain); [2]) turn out when `CN1C(=O)[C@H](NC(=O)Nc2cccc(C3=NOS(=O)N3)c2)N=C(c2ccccc2)c2ccccc21` (some centres unmarked) [Example 36, N-{1,3-Dihydro-1-methyl-2-oxo-5-phenyl-1H-1,4-benzodiazepin-3-yl}-N'-{[3-(1,2,4-oxadiathiazol-5-one)phenyl]urea}] was run?
The pIC50 was 7.71.

And the pIC50 (CCK Receptor (Pancreas); [1])?
Its pIC50 is 5.82.

How did the pIC50 (CCK Receptor (Brain); [2]) turn out when `CN1C(=O)[C@H](NC(=O)Nc2cccc(-c3n[nH]c(=O)o3)c2)N=C(c2ccccc2)c2ccccc21` [Example 37] was run?
The pIC50 was 8.44.

And the pIC50 (CCK Receptor (Pancreas); [1])?
Its pIC50 is 5.61.
